# In publication PMC8495455, “Discovery of a transdermally deliverable pentapeptide for activating AdipoR1 to promote hair growth” (EMBO Molecular Medicine, 2021):
# Where “and” joins values, the source holds several entries; their conditions need not be identical. Equal entries are not always repeated.
# Legend:
# human DP cells = test: MTT cell proliferation assay, DP cells; format: cell-based; settings: 48 h
# Source text: (§1) To design transdermally deliverable AdipoR1 agonist, we further assessed the 15‐mer sequence by cutting it into several 5‐mer peptides (Fig EV1B) (Bos & Meinardi, [2000]). Based on the fact that AdipoRs are expressed in HF cells, including dermal papilla (DP) and outer root sheath (ORS) cells (Won et al, [2012]), we performed a cell proliferation assay on human DP and ORS cells to see if there is any potential biological effect of the 5‐mer peptides on the human HF cells.
# (§2) Dermal papilla cells and ORS cells were seeded into a 96‐well plate (1.0 × 10^4 cells/well) with serum‐free culture media for 24 h and then treated with each candidate 5‐mer peptide (in 0.5 μg/ml or 5 μg/ml) for 48 h. After the addition of MTT solution (20 μl, 5 mg/ml) to each well, the cells were incubated for 4 h at 37°C in the dark room and then incubated with dimethyl sulfoxide (DMSO, 200 μl) for 20 min at room temperature. The samples were assessed by measuring the absorbance at 570 nm with an absorbance microplate reader (VersaMax).
# human ORS cells = test: MTT cell proliferation assay, ORS cells; format: cell-based; settings: 0.5 or 5 μg/ml, 48 h, Paired t-test vs control
# Source text: as §1, §2
# [1] = test system: AMPK phosphorylation in DP cells; test: Western blot p-AMPK, DP cells; format: cell-based, human; settings: P5 0 - 50 μM, APN 2.5 μg/ml
# Source text: Following the confirmation of the molecular interaction between AdipoR1 and P5, we evaluated the activation of the intracellular signaling pathway by P5. We investigated whether APN treatment on ORS and DP cells could activate AMPK or ERK signaling pathways, which are previously known to be downstream effectors of AdipoR1 (Mao et al, [2006]; Deepa & Dong, [2009]; Shibata et al, [2012]). […] Next, for determination of whether both P5 and APN mediates the phosphorylation of AMPK through AdipoR1 in ORS and DP cells, the cells were transfected with AdipoR1 siRNA (Appendix Fig S1). […] Collectively, P5 activates AMPK signaling pathway through AdipoR1 in ORS and DP cells in vitro.
# Human ORS and DP cells or skin tissue were lysed (RIPA lysis buffer; #20‐188; Merck Millipore). The obtained protein was then separated by 8% SDS–PAGE and transferred to a polyvinylidene fluoride membrane (Amersham). The protein transferred membranes were incubated overnight with the specific antibodies. […] Antibody‐antigen complexes detected by enhanced chemiluminescent substrate (Thermo Fisher) were captured and quantified by Amersham imager 680 systems (GE Healthcare).
# VEGF mRNA = test: qRT-PCR growth factor gene expression in DP cells, VEGF; format: cell-based, human; settings: for mRNA_VEGF: DP cells
# Source text: Next, we investigated the downstream effects of P5 on hair growth factor genes and proteins in DP cells. […] We tested whether P5 can also increase the mRNA levels and proteins of hair growth factors in DP cells: IGF‐1, VEGF, HGF, platelet‐derived growth factor alpha (PDGFA), and fibroblast growth factor (FGF) 7, which are known to induce or maintain the anagen phase of the hair cycle (Jindo et al, [1994]; Philpott et al, [1994]; Yano et al, [2001]; Jang, [2005]; Tomita et al, [2006]; Iino et al, [2007]).
# Total RNA was isolated from P5‐treated DP cells using RNAiso Plus (#9109; TaKaRa). We used the total RNA (1 µg) for cDNA synthesis using a RevertAid First Strand cDNA Synthesis Kit (Thermo Fisher) according to the manufacturer's instructions. The mRNA expression levels were quantified on a 7500 Real‐time PCR System (Thermo Fisher) using TB Green Premix Ex Taq (TaKaRa Bio): human IGF‐1, VEGF, HGF, PDGFA, FGF7, and glyceraldehyde 3‐phosphate dehydrogenase (GAPDH) (Appendix Table S2). The relative expression levels of each gene were determined by the 2^‐ΔΔCT method.
# [2] = test system: matrix cells of human HF bulbs; test: IF staining Ki-67 of ex vivo cultured HF bulb; format: cell-based; settings: for Numbers of Ki-67-positive cells normalized to DAPI-stained cells: ex vivo cultured HF bulb, individual HFs, n = 8
# Source text: We next investigated whether P5 can reproduce the effects of APN on hair growth promotion ex vivo (Won et al, [2012]) using ex vivo human HF organ culture model. […] The Ki‐67‐positive cell portion of the matrix area in the P5‐treated HFs was higher than that in the vehicle‐treated group (Fig 3E).
# Paraffin‐embedded mouse cutaneous back tissue was sectioned (4 μm thickness) and stained with hematoxylin and eosin. For IF staining, human ORS cells cultured in FiTC‐P5, sectioned paraffin‐embedded human HFs (7 μm thickness), and sectioned paraffin‐embedded mouse cutaneous dorsal tissue or human skin tissue (5 μm thickness) were incubated at 4°C overnight with the following primary antibodies diluted in the diluent reagent (Invitrogen): phospho‐AMPK (#2535, 1:100; Cell Signaling), Ki‐67 (#M7240, 1:200; Dako), versican (#ab177480, 1:200; Abcam), or AdipoR1 antibody (#ab126611, 1:200; Abcam). After three washes with PBS, the slides were incubated with the secondary Alexa Fluor 488‐labeled anti‐mouse or rabbit IgG antibody (#ab150077, #ab150113, 1:200; Invitrogen), or Alexa Fluor 594‐labeled anti‐rabbit IgG antibody (#a11012, 1:200; Invitrogen) at 25°C for 1 h. Nuclei were counterstained with 4′,6‐diamidino‐2‐phenylindole (DAPI; #D1306, 1:1,000; Invitrogen). Microscopic observations were performed with a Nikon Eclipse Ci‐L microscope (Nikon). IF intensity was observed and recorded with a Nikon Eclipse Ni‐E fluorescence microscope (Nikon).
substance,measurement,setting,value
"GLYYF [P5, GST-fused (GST-P5) in pulldown assays]","Relative cell proliferation, DP","human DP cells; 0.5μg/ml, control = 1, replicate 1",1.11
same,"Relative cell proliferation, DP","human DP cells; 0.5μg/ml, control = 1, replicate 2",1.117
same,"Relative cell proliferation, DP","human DP cells; 0.5μg/ml, control = 1, replicate 3",1.106
same,"Relative cell proliferation, DP","human DP cells; 5μg/ml, control = 1, replicate 1",1.094
same,"Relative cell proliferation, DP","human DP cells; 5μg/ml, control = 1, replicate 2",1.179
same,"Relative cell proliferation, DP","human DP cells; 5μg/ml, control = 1, replicate 3",1.068
same,"Relative cell proliferation, DP","human DP cells; 5μg/ml, control = 1, replicate 4",1.07
same,"Relative cell proliferation, DP","human DP cells; 5μg/ml, control = 1, replicate 5",1.01
same,"Cell proliferative effect, DP cells","human DP cells; 0.5 or 5 μg/ml, Paired t-test vs control",significant cell proliferative effects
same,"Cell proliferative effect, ORS cells",human ORS cells,significant cell proliferative effects
same,"Phosphorylation of AMPK, DP cells",[1],concentration‐dependent phosphorylation of AMPK
same,mRNA_VEGF,"VEGF mRNA; P5 5μM, relative to Control = 1, replicate 1",1.194
same,mRNA_VEGF,"VEGF mRNA; P5 5μM, relative to Control = 1, replicate 2",1.24
same,mRNA_VEGF,"VEGF mRNA; P5 5μM, relative to Control = 1, replicate 3",0.9876
same,mRNA_VEGF,"VEGF mRNA; P5 5μM, relative to Control = 1, replicate 4",0.849
same,mRNA_VEGF,"VEGF mRNA; P5 25μM, relative to Control = 1, replicate 1",2.123
same,mRNA_VEGF,"VEGF mRNA; P5 25μM, relative to Control = 1, replicate 2",1.672
same,mRNA_VEGF,"VEGF mRNA; P5 25μM, relative to Control = 1, replicate 3",2.456
same,mRNA_VEGF,"VEGF mRNA; P5 25μM, relative to Control = 1, replicate 4",1.575
same,VEGF mRNA expression,"VEGF mRNA; P5-treated DP cells, n = 4",significantly increased
same,Numbers of Ki-67-positive cells normalized to DAPI-stained cells,[2]; P5 5μM,0.25 and 0.29 and 0.26 and 0.24 and 0.3 and 0.22 and 0.21
same,Numbers of Ki-67-positive cells normalized to DAPI-stained cells,[2]; P5 25μM,0.29 and 0.28 and 0.31 and 0.37 and 0.42 and 0.41 and 0.43 and 0.33
same,Ki-67 in matrix cells of HF bulbs,"[2]; ex vivo cultured human HFs, vs vehicle",increased significantly
